Measurements published in patent US10047102B2, “Pyridyl-triazabicycles” (Hoffmann-La Roche Inc., priority 2014, dated 2018).

Biological target: T1, BACE1 (Homo sapiens, UniProt P56817)
T1 construct: endogenous in cells; host or cells: HEK293 APP cells
Test: Cellular Aβ-lowering assay (Abeta 40 AlphaLISA, HEK293 APP cells)
Assay type: cell-based
Conditions: Aβ 40 in culture supernatant by AlphaLISA, 18-20 hrs incubation at 37° C., 1% DMSO
Procedure: The compounds were investigated in accordance with the test given hereinafter.
The Abeta 40 AlphaLISA Assay can be used. The HEK293 APP cells were seeded in 96 well Microtiter plates in cell culture medium (Iscove's, plus 10% (v/v) fetal bovine serum, penicillin/streptomycin) to about 80% confluency and the compounds were added at a 3× concentration in ⅓ volume of culture medium (final DMSO concentration was kept at 1% v/v). After 18-20 hrs incubation at 37° C. and 5% CO2 in a humidified incubator, the culture supernatants were harvested for the determination of Aβ 40 concentrations using Perkin-Elmer Human Amyloid beta 1-40 (high specificity) Kit (Cat# AL275C).
In a Perkin-Elmer White Optiplate-384 (Cat# 6007290), 2 ul culture supernatants were combined with 2 μl of a 10× AlphaLISA Anti-hAβAcceptor beads+Biotinylated Antibody Anti-Aβ 1-40 Mix (50 μg/mL/5 nM). After 1 hour room temperature incubation, 16 μl of a 1.25× preparation of Streptavidin (SA) Donor beads (25 μg/mL) were added and incubated for 30 minutes in the Dark. Light Emission at 615 nm was then recorded using EnVision-Alpha Reader. Levels of Aβ 40 in the culture supernatants were calculated as percentage of maximum signal (cells treated with 1% DMSO without inhibitor). The IC50 values were calculated using the Excel XLfit software.

T1 sequence (P56817 46-501): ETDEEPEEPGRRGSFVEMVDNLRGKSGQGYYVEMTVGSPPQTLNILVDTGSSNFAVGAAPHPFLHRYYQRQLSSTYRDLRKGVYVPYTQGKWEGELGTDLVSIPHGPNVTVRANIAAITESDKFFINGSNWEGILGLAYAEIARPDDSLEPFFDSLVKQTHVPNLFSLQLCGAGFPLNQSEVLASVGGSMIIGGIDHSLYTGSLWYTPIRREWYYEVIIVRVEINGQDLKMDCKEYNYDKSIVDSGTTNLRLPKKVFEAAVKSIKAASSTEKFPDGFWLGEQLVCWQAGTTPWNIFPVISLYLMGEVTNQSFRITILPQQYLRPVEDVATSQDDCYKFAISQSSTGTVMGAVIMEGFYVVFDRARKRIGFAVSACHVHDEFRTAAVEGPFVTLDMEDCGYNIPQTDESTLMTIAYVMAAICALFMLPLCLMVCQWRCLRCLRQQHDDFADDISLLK

| IC50 | Structure (SMILES) |
| --- | --- |
| 147 nM | N#Cc1ccc(C(=O)Nc2ccc(F)c([C@]3(C(F)F)C[S@@]4(=O)=NCCCCN4C(N)=N3)n2)nc1 [Example 7, N-[6-[(1R,10S)-8-Amino-10-(difluoromethyl)-1-oxo-1λ^6-thia-2,7,9-triazabicyclo[5.4.0]undeca-1,8-dien-10-yl]-5-fluoropyridin-2-yl]-5-cyanopyridine-2-carboxamide] |
| 78 nM | N#Cc1ccc(C(=O)Nc2ccc(F)c([C@]3(C(F)F)C[S@]4(=O)=NCCCCN4C(N)=N3)n2)nc1 [Example 6, N-[6-[(1S,10S)-8-Amino-10-(difluoromethyl)-1-oxo-1λ^6-thia-2,7,9-triazabicyclo[5.4.0]undeca-1,8-dien-10-yl]-5-fluoropyridin-2-yl]-5-cyanopyridine-2-carboxamide] |
